Assay results taken from ChEMBL document CHEMBL5046281, “N-Aryl Mercaptopropionamides as Broad-Spectrum Inhibitors of Metallo-β-Lactamases” (J Med Chem, 2022).
Active and inactive are the calls of the source. No cut-off for these calls is given here.

Columns and labels:
[1] = target: T1, Interstitial collagenase (Homo sapiens) (UniProt P03956); assay: Inhibition of human MMP-1 at 100 uM relative to control
T1 sequence (whole entry): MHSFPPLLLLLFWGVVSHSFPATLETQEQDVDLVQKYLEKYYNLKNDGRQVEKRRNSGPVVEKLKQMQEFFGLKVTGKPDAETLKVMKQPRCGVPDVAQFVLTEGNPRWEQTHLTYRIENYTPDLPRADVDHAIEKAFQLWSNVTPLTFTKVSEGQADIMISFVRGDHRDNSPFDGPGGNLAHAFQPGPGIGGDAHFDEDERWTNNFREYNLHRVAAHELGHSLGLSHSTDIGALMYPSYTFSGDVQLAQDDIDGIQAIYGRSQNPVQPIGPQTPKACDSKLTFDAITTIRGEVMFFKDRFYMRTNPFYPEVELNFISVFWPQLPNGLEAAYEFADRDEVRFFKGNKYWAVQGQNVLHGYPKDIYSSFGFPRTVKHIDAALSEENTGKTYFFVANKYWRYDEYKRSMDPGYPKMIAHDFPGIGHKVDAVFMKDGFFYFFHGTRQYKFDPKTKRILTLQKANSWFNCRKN

[2] = test system: Serratia marcescens; assay: Potentiation of imipenem-induced antibacterial activity against NDM-1 producing Serratia marcescens T2352 clinical isolates assessed as imipenem MIC at 128 mg/l by microdilution method; format: functional
[3] = test system: Klebsiella pneumoniae; assay: Potentiation of imipenem-induced antibacterial activity against NDM-1 producing Klebsiella pneumoniae T2301 clinical isolates assessed as imipenem MIC at 128 mg/l by microdilution method; format: functional
[4] = test system: Escherichia coli; assay: Potentiation of imipenem-induced antibacterial activity against NDM-1 producing Escherichia coli assessed as imipenem MIC at 16 ug/ml by microdilution method (reference value: 128 ug/ml); format: functional; settings: dose 16 µg/ml
[5] = test system: Escherichia coli; assay: Potentiation of imipenem-induced antibacterial activity against NDM-1 producing Escherichia coli assessed as imipenem MIC at 64 ug/ml by microdilution method (reference value: 128 ug/ml); format: functional; settings: dose 64 µg/ml
[6] = test system: Escherichia coli; assay: Potentiation of imipenem-induced antibacterial activity against KPC-2 producing Escherichia coli T2435 clinical isolates assessed as imipenem MIC at 128 mg/l by microdilution method; format: functional
[7] = test system: Klebsiella pneumoniae; assay: Antibacterial activity against imipenem-resistant NDM-1-producing Klebsiella pneumoniae T2301 at 128 mg/L measured after 24 hrs in presence of imipenem by time-kill assay; format: functional, organism-based
[8] = Lipophilicity, log D of the compound at pH 7.4 by HPLC-MS analysis; format: physicochemical; settings: buffer
[9] = target: Disintegrin and metalloproteinase domain-containing protein 17 (Homo sapiens) (UniProt P78536); assay: Inhibition of human TACE at 100 uM relative to control
[10] = test system: Pseudomonas aeruginosa; assay: Antibacterial activity against VIM-2 expressing Pseudomonas aeruginosa isolates assessed as inhibition of bacterial growth by microdilution method; format: functional, organism-based
[11] = test system: Escherichia coli; assay: Potentiation of imipenem-induced antibacterial activity against NDM-1 producing Escherichia coli assessed as fold change in imipenem MIC at 64 ug/ml by microdilution method; format: functional; settings: dose 64 µg/ml
[12] = test system: Escherichia coli; assay: Antibacterial activity against NDM-1 expressing Escherichia coli isolates assessed as inhibition of bacterial growth by microdilution method; format: functional, organism-based
[13] = test system: Escherichia coli; assay: Potentiation of imipenem-induced antibacterial activity against NDM-1 producing Escherichia coli assessed as fold change in imipenem MIC at 16 ug/ml by microdilution method; format: functional; settings: dose 16 µg/ml
[14] = test system: Klebsiella pneumoniae; assay: Antibacterial activity against imipenem-resistant NDM-1-producing Klebsiella pneumoniae T2301 at 128 mg/L measured after 24 hrs by time-kill assay; format: functional, organism-based
[15] = Selectivity ratio of MIC for antibacterial activity against VIM-1 producing Pseudomonas aeruginosa T2357 clinical isolates to MIC for potentiation of imipenem-induced antibacterial activity against VIM-1 producing Pseudomonas aeruginosa T2357 clinical isolates assessed as imipenem MIC at 128 mg/l; format: functional
[16] = target: T2, Matrix metalloproteinase-14 (Homo sapiens, UniProt P50281); assay: Inhibition of human MMP-14 at 100 uM relative to control
[17] = test system: Pseudomonas aeruginosa; assay: Potentiation of imipenem-induced antibacterial activity against IMP-1 producing Pseudomonas aeruginosa T2325 clinical isolates assessed as imipenem MIC at 128 mg/l by microdilution method; format: functional
[18] = test system: Klebsiella pneumoniae; assay: Synergistic antibacterial activity against NDM-1-producing Klebsiella pneumoniae T2301 clinical isolate assessed as fractional inhibitory concentration index in presence of imipenem by microdilution checkerboard assay; format: functional
[19] = Selectivity ratio of MIC for antibacterial activity against GIM-1 producing Enterobacter cloacae T2218 clinical isolates to MIC for potentiation of imipenem-induced antibacterial activity against GIM-1 producing Enterobacter cloacae T2218 clinical isolates assessed as imipenem MIC at 128 mg/l; format: functional
[20] = test system: Klebsiella pneumoniae; assay: Antibacterial activity against imipenem-resistant NDM-1-producing Klebsiella pneumoniae T2301 infected in Galleria mellonella larvae assessed as survival rate at 38.4 ug injected via proleg measured after 1 day by Kaplan-Meier method; format: functional; settings: dose 38.4 µg
[21] = test system: Escherichia coli; assay: Potentiation of imipenem-induced antibacterial activity against NDM-1 producing Escherichia coli assessed as imipenem MIC at 32 ug/ml by microdilution method (reference value: 128 ug/ml); format: functional; settings: dose 32 µg/ml
[22] = target: T2, Matrix metalloproteinase-14; assay: Inhibition of human MMP-14
[23] = test system: Escherichia coli; assay: Potentiation of imipenem-induced antibacterial activity against NDM-1 producing Escherichia coli assessed as imipenem MIC at 2 ug/ml by microdilution method (reference value: 128 ug/ml); format: functional; settings: dose 2 µg/ml
[24] = test system: A549; assay: Cytotoxicity against human A549 cells assessed as reduction in cell viability at 100 uM relative to control; format: toxicity, cell-based; settings: a549, 100 µM
[25] = test system: Escherichia coli; assay: Antibacterial activity against VIM-1 expressing Escherichia coli isolates assessed as inhibition of bacterial growth by microdilution method; format: functional, organism-based
[26] = target: Neutrophil collagenase (Homo sapiens) (UniProt P22894); assay: Inhibition of human MMP-8 at 100 uM relative to control
[27] = target: BlaVIM-1 (Escherichia coli, UniProt Q8GDC1); assay: Inhibition of Escherichia coli VIM-1 using fluorocillin as substrate incubated for 30 mins by fluorescence based assay
[28] = Selectivity ratio of MIC for antibacterial activity against IMP-1 producing Pseudomonas aeruginosa T2325 clinical isolates to MIC for potentiation of imipenem-induced antibacterial activity against IMP-1 producing Pseudomonas aeruginosa T2325 clinical isolates assessed as imipenem MIC at 128 mg/l; format: functional
[29] = test system: Escherichia coli; assay: Potentiation of imipenem-induced antibacterial activity against NDM-1 producing Escherichia coli assessed as fold change in imipenem MIC at 4 ug/ml by microdilution method; format: functional; settings: dose 4 µg/ml
[30] = test system: HepG2; assay: Cytotoxicity against human HepG2 cells assessed as reduction in cell viability at 100 uM relative to control; format: toxicity, cell-based; settings: hepg2, 100 µM
[31] = test system: Escherichia coli; assay: Potentiation of imipenem-induced antibacterial activity against NDM-1 producing Escherichia coli assessed as fold change in imipenem MIC at 128 ug/ml by microdilution method; format: functional; settings: dose 128 µg/ml

Chain of Disintegrin and metalloproteinase domain-containing protein 17 (Homo sapiens) (P78536 whole entry, the tested form may be a part): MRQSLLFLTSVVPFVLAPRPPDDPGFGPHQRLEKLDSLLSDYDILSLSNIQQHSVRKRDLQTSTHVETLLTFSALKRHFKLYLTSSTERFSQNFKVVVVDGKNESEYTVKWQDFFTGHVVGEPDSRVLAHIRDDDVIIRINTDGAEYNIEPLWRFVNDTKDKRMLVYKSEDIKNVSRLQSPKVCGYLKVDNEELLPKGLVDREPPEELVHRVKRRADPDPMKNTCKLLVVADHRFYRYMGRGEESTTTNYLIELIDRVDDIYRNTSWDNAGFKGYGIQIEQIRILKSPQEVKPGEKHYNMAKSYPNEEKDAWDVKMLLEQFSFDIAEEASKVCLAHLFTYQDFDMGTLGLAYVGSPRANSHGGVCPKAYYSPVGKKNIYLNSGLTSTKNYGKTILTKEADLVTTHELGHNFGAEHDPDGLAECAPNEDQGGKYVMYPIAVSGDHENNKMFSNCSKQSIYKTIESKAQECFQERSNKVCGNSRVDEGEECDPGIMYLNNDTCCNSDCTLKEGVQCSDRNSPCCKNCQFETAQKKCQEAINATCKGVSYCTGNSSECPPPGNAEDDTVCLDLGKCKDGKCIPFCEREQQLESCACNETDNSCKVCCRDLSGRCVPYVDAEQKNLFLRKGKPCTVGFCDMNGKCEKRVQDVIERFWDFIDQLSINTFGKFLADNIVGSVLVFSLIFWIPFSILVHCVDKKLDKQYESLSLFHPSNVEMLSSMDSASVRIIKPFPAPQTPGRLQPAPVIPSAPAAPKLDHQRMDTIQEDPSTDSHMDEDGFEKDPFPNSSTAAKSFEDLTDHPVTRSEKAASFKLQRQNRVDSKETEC
Chain of Neutrophil collagenase (Homo sapiens) (P22894 101-467 limits assumed): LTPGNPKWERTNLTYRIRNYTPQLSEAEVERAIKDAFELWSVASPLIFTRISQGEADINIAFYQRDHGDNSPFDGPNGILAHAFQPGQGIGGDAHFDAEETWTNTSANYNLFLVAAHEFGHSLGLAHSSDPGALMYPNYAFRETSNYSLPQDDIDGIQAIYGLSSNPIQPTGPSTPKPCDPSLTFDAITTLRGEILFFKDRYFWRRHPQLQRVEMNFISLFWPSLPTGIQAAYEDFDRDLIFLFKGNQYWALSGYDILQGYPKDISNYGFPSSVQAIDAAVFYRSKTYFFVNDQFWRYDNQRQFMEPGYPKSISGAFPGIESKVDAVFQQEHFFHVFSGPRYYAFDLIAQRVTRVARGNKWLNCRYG

O=C(CCS)Nc1cccc(C(=O)O)c1
inhibition [1]: < 10%
MIC [2]: 4 µg/mL
MIC [3]: 0.5 µg/mL
MIC [4]: 64 µg/mL
MIC [5]: 2 µg/mL
MIC [6]: 4 µg/mL
Activity [7]: Active
logD [8]: -0.96
inhibition [9]: < 10%
Activity [10]: inactive
fold change (FC) [11]: 64
Activity [12]: inactive
fold change (FC) [13]: 2
Activity [14]: inactive
Ratio [15]: 1
inhibition [16]: 61%
MIC [17]: 16 µg/mL
fractional inhibitory concentration index (FICI) [18]: 0.25
Ratio [19]: 1
Activity [20]: <20%
MIC [21]: 8 µg/mL
IC50 [22]: 68 µM
MIC [23]: 128 µg/mL
Activity [24]: < 10%
Activity [25]: inactive
inhibition [26]: < 10%
IC50 [27]: 1.2 µM
Ratio [28]: 1
fold change (FC) [29]: 1
Activity [30]: < 10%
fold change (FC) [31]: 256
